# Measurements reported in PubChem BioAssay (NCI).
#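 Exposure lasted 48 hours, with cells grown in 96-well plates and compounds tested at five concentrations. GI50 is the concentration that inhibits growth by half. At the TGI there is no net growth.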
# How the values were obtained:
# Experiment in all cases: NCI tumour cell line growth inhibition, 48 h
# COLO 205 colon = tested on: COLO 205 colon
# HS 578T breast = tested on: HS 578T breast
# K-562 leukemia = tested on: K-562 leukemia
# HCT-116 colon = tested on: HCT-116 colon
# MDA-MB-435 = tested on: MDA-MB-435
# CCRF-CEM leukemia = tested on: CCRF-CEM leukemia
# BT-549 breast = tested on: BT-549 breast
# UO-31 renal = tested on: UO-31 renal
# SNB-75 CNS = tested on: SNB-75 CNS
# CAKI-1 renal = tested on: CAKI-1 renal
# UACC-62 melanoma = tested on: UACC-62 melanoma
# MOLT-4 leukemia = tested on: MOLT-4 leukemia
# MDA-MB-231 breast = tested on: MDA-MB-231 breast
# SK-MEL-28 melanoma = tested on: SK-MEL-28 melanoma
# HOP-62 NSCLC = tested on: HOP-62 NSCLC
# SF-295 CNS = tested on: SF-295 CNS
# OVCAR-4 ovarian = tested on: OVCAR-4 ovarian
# NCI/ADR-RES ovarian = tested on: NCI/ADR-RES ovarian
# IGROV1 ovarian = tested on: IGROV1 ovarian
# TK-10 renal = tested on: TK-10 renal
# SK-MEL-5 melanoma = tested on: SK-MEL-5 melanoma
# NCI-H522 lung = tested on: NCI-H522 lung
# SN12C renal = tested on: SN12C renal
# HL-60(TB) leukemia = tested on: HL-60(TB) leukemia
# RPMI-8226 leukemia = tested on: RPMI-8226 leukemia
# SF-268 CNS = tested on: SF-268 CNS
# HCC-2998 colon = tested on: HCC-2998 colon
# T-47D breast = tested on: T-47D breast
# MCF7 breast = tested on: MCF7 breast
# NCI-H226 lung = tested on: NCI-H226 lung
# EKVX NSCLC = tested on: EKVX NSCLC
# A498 renal = tested on: A498 renal
# U251 CNS = tested on: U251 CNS
# NCI-H23 lung = tested on: NCI-H23 lung
# UACC-257 melanoma = tested on: UACC-257 melanoma
# SW-620 colon = tested on: SW-620 colon
# SK-OV-3 ovarian = tested on: SK-OV-3 ovarian
# HCT-15 colon = tested on: HCT-15 colon
# HOP-92 NSCLC = tested on: HOP-92 NSCLC
# SK-MEL-2 melanoma = tested on: SK-MEL-2 melanoma
# HT29 colon = tested on: HT29 colon
# 786-0 renal = tested on: 786-0 renal
# OVCAR-8 ovarian = tested on: OVCAR-8 ovarian
# RXF 393 renal = tested on: RXF 393 renal
# OVCAR-3 ovarian = tested on: OVCAR-3 ovarian
# ACHN renal = tested on: ACHN renal
# OVCAR-5 ovarian = tested on: OVCAR-5 ovarian
# KM12 colon = tested on: KM12 colon
# M14 melanoma = tested on: M14 melanoma
# NCI-H460 lung = tested on: NCI-H460 lung
# A549 NSCLC = tested on: A549 NSCLC
# LOX IMVI melanoma = tested on: LOX IMVI melanoma
# DU-145 prostate = tested on: DU-145 prostate
# PC-3 prostate = tested on: PC-3 prostate
# SF-539 CNS = tested on: SF-539 CNS
# SNB-19 CNS = tested on: SNB-19 CNS
# MALME-3M melanoma = tested on: MALME-3M melanoma
compound,measurement,setting,value
NCCCN(CCCCN(CCCN)C(=O)OCc1ccccc1)C(=O)OCc1ccccc1,TGI,COLO 205 colon,> 100 µM
same,TGI,HS 578T breast,> 100 µM
same,TGI,K-562 leukemia,> 100 µM
same,TGI,HCT-116 colon,> 100 µM
same,TGI,MDA-MB-435,> 100 µM
same,TGI,CCRF-CEM leukemia,> 100 µM
same,TGI,BT-549 breast,> 100 µM
same,TGI,UO-31 renal,> 100 µM
same,TGI,SNB-75 CNS,> 100 µM
same,TGI,CAKI-1 renal,> 100 µM
same,TGI,UACC-62 melanoma,> 100 µM
same,TGI,MOLT-4 leukemia,> 100 µM
same,TGI,MDA-MB-231 breast,93.7 µM
same,TGI,SK-MEL-28 melanoma,> 100 µM
same,TGI,HOP-62 NSCLC,> 100 µM
same,TGI,SF-295 CNS,> 100 µM
same,TGI,OVCAR-4 ovarian,> 100 µM
same,TGI,NCI/ADR-RES ovarian,> 100 µM
same,TGI,IGROV1 ovarian,> 100 µM
same,TGI,TK-10 renal,> 100 µM
same,TGI,SK-MEL-5 melanoma,> 100 µM
same,TGI,NCI-H522 lung,85.4 µM
same,TGI,SN12C renal,> 100 µM
same,TGI,HL-60(TB) leukemia,> 100 µM
same,TGI,RPMI-8226 leukemia,> 100 µM
same,TGI,SF-268 CNS,> 100 µM
same,TGI,HCC-2998 colon,> 100 µM
same,TGI,T-47D breast,> 100 µM
same,TGI,MCF7 breast,77.7 µM
same,TGI,NCI-H226 lung,> 100 µM
same,TGI,EKVX NSCLC,> 100 µM
same,TGI,A498 renal,> 100 µM
same,TGI,U251 CNS,> 100 µM
same,TGI,NCI-H23 lung,> 100 µM
same,TGI,UACC-257 melanoma,> 100 µM
same,TGI,SW-620 colon,> 100 µM
same,TGI,SK-OV-3 ovarian,> 100 µM
same,TGI,HCT-15 colon,> 100 µM
same,TGI,HOP-92 NSCLC,> 100 µM
same,TGI,SK-MEL-2 melanoma,> 100 µM
same,TGI,HT29 colon,> 100 µM
same,TGI,786-0 renal,> 100 µM
same,TGI,OVCAR-8 ovarian,> 100 µM
same,TGI,RXF 393 renal,> 100 µM
same,TGI,OVCAR-3 ovarian,> 100 µM
same,TGI,ACHN renal,> 100 µM
same,TGI,OVCAR-5 ovarian,> 100 µM
same,TGI,KM12 colon,> 100 µM
same,TGI,M14 melanoma,> 100 µM
same,TGI,NCI-H460 lung,> 100 µM
same,TGI,A549 NSCLC,> 100 µM
same,TGI,LOX IMVI melanoma,> 100 µM
same,TGI,DU-145 prostate,> 100 µM
same,TGI,PC-3 prostate,> 100 µM
same,TGI,SF-539 CNS,> 100 µM
same,TGI,SNB-19 CNS,> 100 µM
CN1CCN(Cc2c[nH]c3c2C(=O)c2c(c(O)c4ccccc4c2O)C3=O)CC1,GI50,COLO 205 colon,31.7 µM
same,TGI,COLO 205 colon,70.7 µM
same,GI50,HS 578T breast,17 µM
same,TGI,HS 578T breast,32.8 µM
same,GI50,K-562 leukemia,2.82 µM
same,TGI,K-562 leukemia,> 100 µM
same,GI50,HCT-116 colon,1.92 µM
same,TGI,HCT-116 colon,10.5 µM
same,GI50,MDA-MB-435,3.98 µM
same,TGI,MDA-MB-435,16.4 µM
same,GI50,CCRF-CEM leukemia,3.51 µM
same,TGI,CCRF-CEM leukemia,18.5 µM
same,GI50,BT-549 breast,18.6 µM
same,TGI,BT-549 breast,34.5 µM
same,GI50,UO-31 renal,11.2 µM
same,TGI,UO-31 renal,32.4 µM
same,GI50,SNB-75 CNS,26.6 µM
same,TGI,SNB-75 CNS,55.7 µM
same,GI50,CAKI-1 renal,3.16 µM
same,TGI,CAKI-1 renal,18.8 µM
same,GI50,UACC-62 melanoma,16.5 µM
same,TGI,UACC-62 melanoma,31.6 µM
same,GI50,MOLT-4 leukemia,4.02 µM
same,TGI,MOLT-4 leukemia,> 100 µM
same,GI50,MDA-MB-231 breast,7.19 µM
same,TGI,MDA-MB-231 breast,19.9 µM
same,GI50,SK-MEL-28 melanoma,19.6 µM
same,TGI,SK-MEL-28 melanoma,38.3 µM
same,GI50,SF-295 CNS,15 µM
same,TGI,SF-295 CNS,35.4 µM
same,GI50,OVCAR-4 ovarian,21.3 µM
same,TGI,OVCAR-4 ovarian,42.6 µM
same,GI50,NCI/ADR-RES ovarian,11.7 µM
same,TGI,NCI/ADR-RES ovarian,25.5 µM
same,GI50,IGROV1 ovarian,3.74 µM
same,TGI,IGROV1 ovarian,23.4 µM
same,GI50,TK-10 renal,1.46 µM
same,TGI,TK-10 renal,14.9 µM
same,GI50,SK-MEL-5 melanoma,14 µM
same,TGI,SK-MEL-5 melanoma,26.9 µM
same,GI50,NCI-H522 lung,14.1 µM
same,TGI,NCI-H522 lung,33.8 µM
same,GI50,SN12C renal,10.3 µM
same,TGI,SN12C renal,21.9 µM
same,GI50,HL-60(TB) leukemia,10.3 µM
same,TGI,HL-60(TB) leukemia,70.4 µM
same,GI50,RPMI-8226 leukemia,3 µM
same,TGI,RPMI-8226 leukemia,26.5 µM
same,GI50,SF-268 CNS,11.1 µM
same,TGI,SF-268 CNS,23.2 µM
same,GI50,HCC-2998 colon,11.2 µM
same,TGI,HCC-2998 colon,23.3 µM
same,GI50,MCF7 breast,5.15 µM
same,TGI,MCF7 breast,17.7 µM
same,GI50,NCI-H226 lung,16.8 µM
same,TGI,NCI-H226 lung,36.5 µM
same,GI50,EKVX NSCLC,13.1 µM
same,TGI,EKVX NSCLC,26.7 µM
same,GI50,U251 CNS,11.1 µM
same,TGI,U251 CNS,27.9 µM
same,GI50,NCI-H23 lung,12.9 µM
same,TGI,NCI-H23 lung,26.9 µM
same,GI50,UACC-257 melanoma,15.9 µM
same,TGI,UACC-257 melanoma,33.1 µM
same,GI50,MALME-3M melanoma,12.7 µM
same,TGI,MALME-3M melanoma,29.3 µM
same,GI50,SW-620 colon,12.5 µM
same,TGI,SW-620 colon,25 µM
same,GI50,SK-OV-3 ovarian,28.4 µM
same,TGI,SK-OV-3 ovarian,55.2 µM
same,GI50,HCT-15 colon,3.46 µM
same,TGI,HCT-15 colon,15.6 µM
same,GI50,HOP-92 NSCLC,7.09 µM
same,TGI,HOP-92 NSCLC,21.8 µM
same,GI50,HT29 colon,26.3 µM
same,TGI,HT29 colon,> 100 µM
same,GI50,OVCAR-8 ovarian,6.34 µM
same,TGI,OVCAR-8 ovarian,26 µM
same,GI50,RXF 393 renal,6.22 µM
same,TGI,RXF 393 renal,19 µM
same,GI50,OVCAR-3 ovarian,11.2 µM
same,TGI,OVCAR-3 ovarian,33.2 µM
same,GI50,ACHN renal,11.3 µM
same,TGI,ACHN renal,23.5 µM
same,GI50,OVCAR-5 ovarian,18.1 µM
same,TGI,OVCAR-5 ovarian,33.6 µM
same,GI50,KM12 colon,3.46 µM
same,TGI,KM12 colon,15.2 µM
same,GI50,M14 melanoma,1.79 µM
same,TGI,M14 melanoma,5.12 µM
same,GI50,NCI-H460 lung,5.42 µM
same,TGI,NCI-H460 lung,17.9 µM
same,GI50,A549 NSCLC,10.7 µM
same,TGI,A549 NSCLC,25.4 µM
same,GI50,LOX IMVI melanoma,1.92 µM
same,TGI,LOX IMVI melanoma,3.8 µM
same,GI50,PC-3 prostate,5.53 µM
same,TGI,PC-3 prostate,21.6 µM
same,GI50,SNB-19 CNS,22.4 µM
same,TGI,SNB-19 CNS,52 µM
